The experiment concerns Mycobacterium tuberculosis. The experiment is described as follows: Antitubercular activity against Mycobacterium tuberculosis. The class given is functional.

A word on the MIC: it is the lowest concentration found to suppress growth. Low readings indicate a more susceptible organism, high ones a less susceptible organism.

Each structure is given as a SMILES string. Values after ≈ are worked out from the molar mass of the structure shown.

Take `CN1C/C(=C\c2ccc(Br)cc2)C(=O)[C@]2(C1)[C@H](c1ccc(Br)cc1)[C@@H]1CSCN1[C@@]21C(=O)Nc2ccccc21`: it took 4.7 µM (≈ 3.13 µg/mL) to inhibit growth (MIC).

With `CN1C/C(=C\c2ccccc2)C(=O)[C@]2(C1)[C@H](c1ccccc1)[C@@H]1CSCN1[C@@]21C(=O)Nc2ccccc21`, the minimum inhibitory concentration (MIC) came out at 49.2 µM (≈ 25 µg/mL).

Compound `CN1C/C(=C\c2ccc(Br)cc2)C(=O)[C@]2(C1)[C@H](c1ccc(Br)cc1)[C@@H]1CSCN1[C@@]21C(=O)Nc2ccc(Cl)cc21` registered an MIC of 4.4 µM (≈ 3.08 µg/mL).

In the case of `CC(C)c1ccc(/C=C2\CN(C)C[C@@]3(C2=O)[C@H](c2ccc(C(C)C)cc2)[C@@H]2CSCN2[C@@]32C(=O)Nc3ccccc32)cc1`, the MIC was 10.6 µM (≈ 6.27 µg/mL).

In turn, `COc1ccccc1/C=C1\CN(C)C[C@@]2(C1=O)[C@H](c1ccccc1OC)[C@@H]1CSCN1[C@@]21C(=O)Nc2ccccc21` returned an MIC of 22 µM (≈ 12.5 µg/mL).

As for `COc1ccc(/C=C2\CN(C)C[C@@]3(C2=O)[C@H](c2ccc(OC)cc2OC)[C@@H]2CSCN2[C@@]32C(=O)Nc3ccccc32)c(OC)c1`, the lowest concentration to inhibit growth (MIC) was 19.9 µM (≈ 12.5 µg/mL).

`CN1C/C(=C\c2ccc(Cl)cc2Cl)C(=O)[C@]2(C1)[C@H](c1ccc(Cl)cc1Cl)[C@@H]1CSCN1[C@@]21C(=O)Nc2ccc(Cl)cc21` registered a minimum inhibitory concentration (MIC) of 1.2 µM (≈ 0.816 µg/mL). Against the preceding compound, the MIC is about 17-fold lower.

`Cc1ccc(/C=C2\CN(C)C[C@@]3(C2=O)[C@H](c2ccc(C)cc2)[C@@H]2CSCN2[C@@]32C(=O)Nc3ccc([N+](=O)[O-])cc32)cc1` gave an MIC of 5.3 µM (≈ 3.08 µg/mL).

In the case of `CN1C/C(=C\c2ccc(Cl)cc2Cl)C(=O)[C@]2(C1)[C@H](c1ccc(Cl)cc1Cl)[C@@H]1CSCN1[C@@]21C(=O)Nc2ccc([N+](=O)[O-])cc21`, the MIC amounted to 0.6 µM (≈ 0.414 µg/mL).

Take `COc1ccc(/C=C2\CN(C)C[C@@]3(C2=O)[C@H](c2ccc(OC)cc2OC)[C@@H]2CSCN2[C@@]32C(=O)Nc3ccc([N+](=O)[O-])cc32)c(OC)c1`: 9.4 µM (≈ 6.32 µg/mL) was the least that counted as inhibitory (MIC).

Regarding `CN1C/C(=C\c2ccccc2Cl)C(=O)[C@]2(C1)[C@H](c1ccccc1Cl)[C@@H]1CSCN1[C@@]21C(=O)Nc2ccccc21`, inhibition of growth (MIC) required 10.9 µM (≈ 6.28 µg/mL).

As for `CN1C/C(=C\c2ccc(F)cc2)C(=O)[C@]2(C1)[C@H](c1ccc(F)cc1)[C@@H]1CSCN1[C@@]21C(=O)Nc2ccccc21`, the MIC was 5.7 µM (≈ 3.1 µg/mL). Against the preceding compound, the MIC is about 1.9-fold lower.

Regarding `Cc1ccccc1/C=C1\CN(C)C[C@@]2(C1=O)[C@H](c1ccccc1C)[C@@H]1CSCN1[C@@]21C(=O)Nc2ccccc21`, the MIC was determined as 23.3 µM (≈ 12.5 µg/mL).

As for `Cc1ccc(/C=C2\CN(C)C[C@@]3(C2=O)[C@H](c2ccc(C)cc2)[C@@H]2CSCN2[C@@]32C(=O)Nc3ccccc32)cc1`, the MIC turned out to be 23.3 µM (≈ 12.5 µg/mL).

In the case of `CN1C/C(=C\c2ccc(Cl)cc2)C(=O)[C@]2(C1)[C@H](c1ccc(Cl)cc1)[C@@H]1CSCN1[C@@]21C(=O)Nc2ccccc21`, the MIC was determined as 5.4 µM (≈ 3.11 µg/mL).

`CN1C/C(=C\c2ccccc2)C(=O)[C@]2(C1)[C@H](c1ccccc1)[C@@H]1CSCN1[C@@]21C(=O)Nc2ccc(Cl)cc21`: the MIC was 23.1 µM (≈ 12.5 µg/mL).

As to `COc1ccc(/C=C2\CN(C)C[C@@]3(C2=O)[C@H](c2ccc(OC)cc2OC)[C@@H]2CSCN2[C@@]32C(=O)Nc3ccc(Cl)cc32)c(OC)c1`, 18.9 µM (≈ 12.5 µg/mL) was the least that counted as inhibitory (MIC).

On to `CN1C/C(=C\c2ccccc2-c2cccs2)C(=O)[C@]2(C1)[C@H](c1ccccc1-c1cccs1)[C@@H]1CSCN1[C@@]21C(=O)Nc2ccc(Cl)cc21`, for which the lowest concentration to inhibit growth (MIC) was 11.4 µM (≈ 8.05 µg/mL).

Take `CN1C/C(=C\c2ccccc2)C(=O)[C@]2(C1)[C@H](c1ccccc1)[C@@H]1CSCN1[C@@]21C(=O)Nc2ccc([N+](=O)[O-])cc21`: the minimal inhibitory concentration (MIC) is 5.6 µM (≈ 3.09 µg/mL).

As for `CN1C/C(=C\c2ccc(Cl)cc2)C(=O)[C@]2(C1)[C@H](c1ccc(Cl)cc1)[C@@H]1CSCN1[C@@]21C(=O)Nc2ccc([N+](=O)[O-])cc21`, the MIC came to 1.3 µM (≈ 0.808 µg/mL).

`COc1ccc(/C=C2\CN(C)C[C@@]3(C2=O)[C@H](c2ccc(OC)cc2)[C@@H]2CSCN2[C@@]32C(=O)Nc3ccc([N+](=O)[O-])cc32)cc1` yielded an MIC of 10.3 µM (≈ 6.31 µg/mL).

The compound `CN1C/C(=C\c2ccc(F)cc2)C(=O)[C@]2(C1)[C@H](c1ccc(F)cc1)[C@@H]1CSCN1[C@@]21C(=O)Nc2ccc([N+](=O)[O-])cc21` gave an MIC of 1.4 µM (≈ 0.824 µg/mL).

Compound `CN1C/C(=C\c2ccc(Br)cc2)C(=O)[C@]2(C1)[C@H](c1ccc(Br)cc1)[C@@H]1CSCN1[C@@]21C(=O)Nc2ccc([N+](=O)[O-])cc21` yielded a minimum inhibitory concentration (MIC) of 1.1 µM (≈ 0.781 µg/mL). The MIC values of the last two compounds are within 1.5-fold of each other.

Turning to `CN1C/C(=C\c2ccc(Cl)cc2Cl)C(=O)[C@]2(C1)[C@H](c1ccc(Cl)cc1Cl)[C@@H]1CSCN1[C@@]21C(=O)Nc2ccccc21`, the MIC was 4.7 µM (≈ 3.03 µg/mL).

In turn, `CN1C/C(=C\c2ccccc2-c2cccs2)C(=O)[C@]2(C1)[C@H](c1ccccc1-c1cccs1)[C@@H]1CSCN1[C@@]21C(=O)Nc2ccccc21` returned an MIC of 12.1 µM (≈ 8.13 µg/mL).

In turn, `CN1C/C(=C\c2ccccc2Cl)C(=O)[C@]2(C1)[C@H](c1ccccc1Cl)[C@@H]1CSCN1[C@@]21C(=O)Nc2ccc([N+](=O)[O-])cc21` had a minimum inhibitory concentration (MIC) of 2.6 µM (≈ 1.62 µg/mL).

With `Cc1ccccc1/C=C1\CN(C)C[C@@]2(C1=O)[C@H](c1ccccc1C)[C@@H]1CSCN1[C@@]21C(=O)Nc2ccc([N+](=O)[O-])cc21`, the minimal inhibitory concentration (MIC) was determined as 5.3 µM (≈ 3.08 µg/mL).

Take `COc1ccccc1/C=C1\CN(C)C[C@@]2(C1=O)[C@H](c1ccccc1OC)[C@@H]1CSCN1[C@@]21C(=O)Nc2ccc([N+](=O)[O-])cc21`: the MIC stood at 5.1 µM (≈ 3.12 µg/mL).

`CN1C/C(=C\c2ccccc2-c2cccs2)C(=O)[C@]2(C1)[C@H](c1ccccc1-c1cccs1)[C@@H]1CSCN1[C@@]21C(=O)Nc2ccc([N+](=O)[O-])cc21` had a minimal inhibitory concentration (MIC) of 5.5 µM (≈ 3.94 µg/mL).

`COc1ccc(/C=C2\CN(C)C[C@@]3(C2=O)[C@H](c2ccc(OC)cc2)[C@@H]2CSCN2[C@@]32C(=O)Nc3ccccc32)cc1`: the lowest concentration to inhibit growth (MIC) was 22 µM (≈ 12.5 µg/mL).

On to `CN1C/C(=C\c2ccc(Cl)cc2)C(=O)[C@]2(C1)[C@H](c1ccc(Cl)cc1)[C@@H]1CSCN1[C@@]21C(=O)Nc2ccc(Cl)cc21`, for which the MIC stood at 5.1 µM (≈ 3.12 µg/mL).

Take `Cc1ccc(/C=C2\CN(C)C[C@@]3(C2=O)[C@H](c2ccc(C)cc2)[C@@H]2CSCN2[C@@]32C(=O)Nc3ccc(Cl)cc32)cc1`: inhibition of growth (MIC) required 11 µM (≈ 6.27 µg/mL). Compared with the last compound, the MIC is about 2.2-fold higher.

Compound `COc1ccc(/C=C2\CN(C)C[C@@]3(C2=O)[C@H](c2ccc(OC)cc2)[C@@H]2CSCN2[C@@]32C(=O)Nc3ccc(Cl)cc32)cc1` showed an MIC of 20.8 µM (≈ 12.5 µg/mL).

For the compound `CN1C/C(=C\c2ccc(F)cc2)C(=O)[C@]2(C1)[C@H](c1ccc(F)cc1)[C@@H]1CSCN1[C@@]21C(=O)Nc2ccc(Cl)cc21`, it took 2.8 µM (≈ 1.62 µg/mL) to inhibit growth (MIC).

`CC(C)c1ccc(/C=C2\CN(C)C[C@@]3(C2=O)[C@H](c2ccc(C(C)C)cc2)[C@@H]2CSCN2[C@@]32C(=O)Nc3ccc(Cl)cc32)cc1` yielded a minimal inhibitory concentration (MIC) of 10.1 µM (≈ 6.33 µg/mL). This MIC is about 3.6-fold higher than that of the compound before.

In turn, `CN1C/C(=C\c2ccccc2Cl)C(=O)[C@]2(C1)[C@H](c1ccccc1Cl)[C@@H]1CSCN1[C@@]21C(=O)Nc2ccc(Cl)cc21` gave an MIC of 5.1 µM (≈ 3.12 µg/mL).

Regarding `Cc1ccccc1/C=C1\CN(C)C[C@@]2(C1=O)[C@H](c1ccccc1C)[C@@H]1CSCN1[C@@]21C(=O)Nc2ccc(Cl)cc21`, it took 11 µM (≈ 6.27 µg/mL) to inhibit growth (MIC).

`COc1ccccc1/C=C1\CN(C)C[C@@]2(C1=O)[C@H](c1ccccc1OC)[C@@H]1CSCN1[C@@]21C(=O)Nc2ccc(Cl)cc21`: the minimum inhibitory concentration (MIC) worked out at 20.8 µM (≈ 12.5 µg/mL). This MIC lies about 1.9-fold higher than the previous one.

The compound `CC[C@@H](CO)NCCN[C@@H](CC)CO` [ETHAMBUTOL] gave an MIC of 7.6 µM (≈ 1.55 µg/mL).

For the compound `NNC(=O)c1ccncc1` [ISONIAZID], 0.4 µM (≈ 0.0549 µg/mL) was the least that counted as inhibitory (MIC).

`NC(=O)c1cnccn1` [PYRAZINAMIDE] registered a minimum inhibitory concentration (MIC) of 50.8 µM (≈ 6.25 µg/mL). This MIC is about 130-fold higher than that of the compound before.

As for `CO[C@H]1/C=C/O[C@@]2(C)Oc3c(C)c(O)c4c(O)c(c(/C=N/N5CCN(C)CC5)c(O)c4c3C2=O)NC(=O)/C(C)=C\C=C\[C@H](C)[C@H](O)[C@@H](C)[C@@H](O)[C@@H](C)[C@H](OC(C)=O)[C@@H]1C` [RIFAMPIN], the MIC came out at 0.1 µM (≈ 0.0823 µg/mL).

The record behind these values is ChEMBL document CHEMBL1153107, “A highly atom economic, chemo-, regio- and stereoselective synthesis and evaluation of spiro-pyrrolothiazoles as antitubercular agents” (2010).
